How the values were obtained:
Assay type in all cases: in vivo
[1] = tested on: Pcca−/−(A138T) mouse model of propionic acidemia; experiment: Blood ammonia levels in mouse model of propionic acidemia; conditions: chow with 225 ppm PZ-2891 plus 1000 ppm Pan for 7 days vs 1000 ppm Pan alone; p=0.0032
Description: Referring to FIG. 2, a mouse model of propionic acidemia, the Pcca−/−(A138T) (Guensel et al. (2013) Mol. Ther. 21: 1316-1323), was fed chow containing either 1000 ppm pantothenate (Pan) or 225 ppm PZ-2891 plus 1000 ppm Pan for 7 days. Blood was drawn from 6 mice per group and blood ammonia levels were determined using a GM7 Micro-Stat Analyser (Analox Instruments, www.analox.com) and the Analox Blood Ammonia Reagent kit according to the manufacturer's instructions. Statistical analysis was performed using the Students unpaired t-test and p=0.0032.

[2] = tested on: Pcca−/−(A138T) mouse model of propionic acidemia; experiment: Liver CoA, acetyl-CoA and propionyl-CoA levels in Pcca mouse model; conditions: chow with 1000 ppm pantothenate plus 75 ppm PZ-3022 from day 21, measured at 70 days
Description: Referring to FIG. 5, a mouse model of propionic acidemia, the Pcca−/−(A138T) (mouse Guensel et al. (2013) Mol. Ther. 21: 1316-23) was fed chow or chow containing 1000 ppm pantothenate plus 75 ppm PZ-3022 beginning at day 21. At 70 days, the liver CoA, acetyl-CoA and propionyl-CoA levels were measured. The Pcca mice had lower free CoA, lower acetyl-CoA and very elevated propionyl-CoA compared to wild-type.

[3] = tested on: Pcca−/−(A138T) mouse model of propionic acidemia; experiment: Plasma acyl-carnitine levels in Pcca mouse model; conditions: chow with 1000 ppm pantothenate plus 75 ppm PZ-3022 from day 21, plasma at 70 days
Description: Referring to FIG. 6A and FIG. 6B, a mouse model of propionic acidemia, the Pcca−/−(A138T) (mouse Guensel et al. (2013) Mol. Ther. 21: 1316-23) was fed chow or chow containing 1000 ppm pantothenate plus 75 ppm PZ-3022 beginning at day 21. At 70 days, the plasma was analyzed for the levels of acyl-carnitines.
Referring to FIG. 7, the data in FIG. 5 are presented as the C3:C2 ration of plasma carnitines.

[4] = tested on: Pcca−/−(A138T) mouse model of propionic acidemia; experiment: Total liver CoA levels in Pcca mouse model; conditions: chow with 1000 ppm pantothenate plus 75 ppm PZ-3022 from day 21, measured at 70 days
Description: Referring to FIG. 4, a mouse model of propionic acidemia, the Pcca−/−(A138T) mouse (Guensel et al. (2013) Mol. Ther. 21: 1316-23) was fed chow or chow containing 1000 ppm pantothenate plus 75 ppm PZ-3022 beginning at day 21. At 70 days, the liver CoA levels were measured.

Structure (SMILES) | blood ammonia levels [1] | liver acetyl-CoA [2] | liver free CoA [2] | liver propionyl-CoA [2] | C3:C2 ratio of plasma carnitines [3] | plasma acetyl-carnitine [3] | liver CoA levels (total) [4]
CC(C)c1ccc(CC(=O)N2CCN(c3ccc(C#N)nn3)CC2)cc1 [PZ-2891] | Reduction of Blood Ammonia Levels | – | – | – | – | – | –
N#Cc1ccc(N2CCN(C(=O)Cc3ccc(C4CC4)cc3)CC2)nn1 [PZ-3022] | – | elevated free CoA and acetyl-CoA | elevated free CoA | propionyl-CoA was reduced | reduced the highly elevated C3:C2 ratio | elevated acetyl-carnitine | the CoA levels were elevated

Source: patent publication US11547709B2, “Methods of treating disorders associated with castor” (ST. JUDE CHILDREN'S RESEARCH HOSPITAL, INC., priority 2017, dated 2023)
